In patent publication US10071960B1, “Enaminone-grafted trithiocarbonate with anticancer and antimicrobial activity” (KING SAUD UNIVERSITY, priority 2017, dated 2018):
Converted amounts (≈) assume the structure as drawn.

Key:
Bacillus subtilis = experiment: In vitro antimicrobial activity (MIC, MBC); format: cell-based; details: FIGS. 4 and 5
Method: (§1) Biological activity of compound 3 as antimicrobial agents was performed according to (Lam et al. 2016). Lyophilized cultures of Streptococcus nutans ATCC 35668, Bacillus subtilis and Brevibacillus laterosporus Wild strains (Gram positive bacteria), Salmonella typhi Wild strain (Gram negative bacteria), Candid albicans ATCC 60193 (yeast), Cryptococcus neoformans Wild strain (yeast), Aspergillus fumigatus AUMC 8794 (mold), and Penicillium chrysogenum AUMC (mold) were grown aerobically on the appropriate medium and in incubating conditions before minimal inhibitory, minimal Bactericidal, and minimal fungicidal concentration testing (MIC, MBC, and MFC). […]
(§2) The total count of microbes was counted by measurement of bacterial and yeast cells; and spores of mold using hemocytometer and account at 400×.
(§3) The bacterial suspensions were prepared from bacterial cultures which gave an optical density reading of ˜0.9 at 620 nm. […]
(§4) To determine MIC of the compound 3, a Mueller-Hinton broth and Potato dextrose broth were used for bacteria and fungi, respectively. […] After incubation, the microbial growth was detected in the wells by p-iodonitrotetrazolium violet (Sigma, USA) reagent. […] Data are expressed as mean±s.d. of the biological replicates and statistically analyzed using One-Way ANOVA analysis using Tukey test (P<0.05) (SPSS, 13.0).

[1] = tested on: Brevibacillus laterosporus Wild strain; experiment: In vitro antimicrobial activity (MIC, MBC); format: cell-based; details: FIGS. 4 and 5
Method: as §1, §2, §3, §4

HepG2 Liver cancer cells = experiment: MTT antiproliferative assay, HepG2; format: cell-based; details: Homo sapiens, 48 hours
Method: (§5) HepG2 (human hepatocarcinoma), LoVo (human colorectal adenocarcinoma) and MDA-MB-231 (human breast cancer) cancer cell lines were selected for the in vitro antiproliferative activity. Cells were seeded in 24-well plates at a density of 50,000 cells/well for 24 hours for adherent. After 24 hours, cells were treated with increasing concentrations of compound 3 or an equal volume of vehicle (DMSO) as a control and were incubated for 48 hours. 100 μL of MTT reagent (5 mg/ml) were added. The plates were incubated for 2 hours and absorbance was determined at 540 nm in an ELISA plate reader (Thermo, USA). Percentages of cell survival were calculated as follows: % cell survival=(absorbance of treated cells/absorbance of cells with vehicle solvent)×100. The 50% inhibitory concentration (IC50) was calculated from the dose-response curve obtained by plotting the percentage of cell survival versus the concentration of compound 3.

[2] = tested on: Candida albicans ATCC 60193; experiment: In vitro antimicrobial activity (MIC, MFC); format: cell-based; details: C. albicans; FIGS. 4 and 5
Method: as §1, §2, §3, §4

[3] = tested on: Cryptococcus neoformans Wild strain; experiment: In vitro antimicrobial activity (MIC, MFC); format: cell-based; details: Cr. neformans; FIGS. 4 and 5
Method: as §1, §2, §3, §4

LoVo Colon cancer cells [4] = experiment: MTT antiproliferative assay, LoVo; format: cell-based; details: Homo sapiens, 48 hours
Method: as §5

[5] = tested on: Hepg2, LoVo, and MDA-MB-231 cell lines; experiment: MTT growth inhibition, all three tested human tumor cells; format: cell-based; details: 48 hours, read-out: IC50 concentrations, range over all three tested human tumor cells
Method: as §5

LoVo Colon cancer cells [6] = experiment: LDH release cytotoxicity assay, LoVo; format: cell-based, human; details: treated with IC50 for 48 hours; FIGS. 7 and 8A-8F
Method: Lactate dehydrogenase (LDH) assay was performed to assess the LDH release into the media following compound 3 treatments (IC50) on HepG2, LoVo and MDA-MB-231 cells after 48 hours of incubation. LDH cytotoxicity assay was carried out using an in vitro toxicology assay kit (Sigma Aldrich Inc., USA), according to protocol in the user's manual. The amount of LDH released in culture media was measured at 490 nm using an ELISA plate reader (Thermo, USA).

[7] = tested on: MDA-MB-231 Breast Cancer cells; experiment: MTT antiproliferative assay, MDA-MB-231; format: cell-based; details: Homo sapiens, MDA-MB-231 cells, 48 hours
Method: as §5

CCOC(=O)C(=CN(C)C)SC(=S)SC(=CN(C)C)C(=O)OCC (stereo in doubt) [compound 3, (Z)-ethyl 3-(dimethylamino)-2-(((((Z)-1-(dimethylamino)-3-ethoxy-3-oxoprop-1-en-2-yl)thio)carbonothioyl)thio)acrylate]
MIC, MBC and MFC: susceptibility compared to other tested microorganisms (Bacillus subtilis): resistant | MIC, MBC and MFC: susceptibility compared to other tested microorganisms [1]: resistant | IC50 (HepG2 Liver cancer cells): 38 µg/mL (≈ 96.8 µM) | MIC, MBC and MFC: susceptibility compared to other tested microbes [2]: more susceptible | MIC, MBC and MFC: susceptibility compared to other tested microbes [3]: more susceptible | IC50 (LoVo Colon cancer cells [4]): 37.5 µg/mL (≈ 95.5 µM) | IC50 [5]: 37.5 to 45 µg/mL (≈ 95.5 to 115 µM) | cytotoxic effects (LDH release, morphology) compared between tumor cell lines (LoVo Colon cancer cells [6]): more active | IC50 [7]: 45 µg/mL (≈ 115 µM)
